Laboratory results: ChEMBL document CHEMBL1157539, “Thousands of chemical starting points for antimalarial lead identification” (Nature, 2010)

Tested on: Plasmodium falciparum
Assay: GSK_TCMDC: Inhibition of Plasmodium falciparum 3D7 in whole erythrocytes, using parasite LDH activity as an index of growth.
Format: functional, organism-based
Conditions: Plasmodium falciparum, 3D7

Row | Structure (SMILES) | XC50
1 | O=[N+]([O-])c1ccc(Nc2nc(NCc3ccccc3)nc(N/N=C/c3ccccc3[N+](=O)[O-])n2)cc1 | 157 nM
2 | Cc1cc(N/N=C/c2cccc([N+](=O)[O-])c2)c2ccccc2n1 | 728 nM
3 | CCN(CC)CCCN(Cc1ccc(-c2ccc(C(F)(F)F)cc2)cc1)C(=O)Cn1c(SCc2cccc(F)c2F)cc(=O)c2ccccc21 | 1320 nM
4 | CN1CCCc2ccc(NC(=O)c3cnc(-c4ccccc4)cn3)cc21 | 905 nM
5 | CCc1cc(Cc2cnc(N)nc2N)cc(CC)c1OC | 1130 nM
6 | OC(CNCc1ccccc1OCc1ccccc1)c1cccc(C(F)(F)F)c1 (stereo not drawn) | 364 nM
7 | CN(C)Cc1ccc2nc(-c3cccc(Cc4cc(Cl)ccc4OCc4ccc(Cl)cc4F)n3)[nH]c2c1 | 1130 nM
8 | Cc1ccc(NC(=O)c2cc(Br)cc(N3CCC(N(C)C)CC3)c2)cc1F | 840 nM
9 | NC(=O)N1CCN(Cc2ccc(Br)cc2)CC1 | 619 nM
10 | Cc1cccc2nc(-c3ccc(-c4ccc(CN5CCN(CCC#N)CC5)cc4)cc3)[nH]c12 | 864 nM
11 | CCCC(C)NC(=O)[C@H](CC1CCCCC1)NC(=O)c1ccc(O)c(-c2cccc(C(F)(F)F)c2)c1 (stereo partly drawn) | 534 nM
12 | COc1ccc(-c2cccc(NC(=O)c3cccc(C#N)c3)c2)cc1CN(C)CCN(C)C | 314 nM
13 | COc1ccc(C(C(=O)NC2CCN(C[C@H](O)c3ccnc4ccc(OC)cc34)CC2)N2CCN(c3ccc([N+](=O)[O-])cc3)CC2)cc1 (stereo partly drawn) | 232 nM
14 | CC(C)CNCc1ccc(-c2cccc(CN(C(=O)CCC3CCCC3)C3CCN(Cc4ccccc4)CC3)c2)cc1 | 799 nM
15 | CCN1CCN(c2cc(C)c3cc(NC(=O)c4cccc(Cl)c4)ccc3n2)CC1 | 775 nM
16 | Cc1cccc2nc(-c3ccc(-c4ccc(CN5CCN(C6CCN(C)CC6)CC5)cc4)s3)[nH]c12 | 145 nM
17 | CN1CCCc2cc(NC(=O)c3cc(-c4ccc(Cl)cc4)cs3)ccc2C1 | 810 nM
18 | O=C(NCC(CCCN1CCC(c2c[nH]c3ccccc23)CC1)c1ccccc1)Nc1ccc(Cl)c(Cl)c1 (stereo not drawn) | 787 nM
19 | C=CCN(c1nc(NC)nc(NCc2c(OC)cccc2OC)n1)C1CCCC1 | 1460 nM
20 | COc1cc(OC)c(NC(=O)C2c3ccccc3C(=O)N(CC(C)C)C2c2cccs2)cc1Cl (stereo not drawn) | 46.4 nM
21 | Cc1cccc2nc(-c3ccc(-c4ccc(CN5CCCC(O)C5)cc4)cc3)[nH]c12 (stereo not drawn) | 859 nM
22 | Cc1cccc(C)c1OC(=O)CSc1nnc(-c2ccccc2O)o1 | 884 nM
23 | CC(C)C[C@H](Nc1ccnc(NCC2CCCCC2)n1)C(=O)NCCOc1ccccc1 | 1020 nM
24 | N[C@@H](Cc1cc(I)c(Oc2ccc(O)c(Cl)c2)c(I)c1)C(=O)O | 993 nM

Row | Structure (SMILES) | XC50
25 | O=C(/C=C/c1ccc(Cl)c(Cl)c1)NCCCCCN1CCC(NC(=O)c2cccc(Cl)c2)CC1 | 687 nM
26 | CCc1ccccc1N1CCN(CCCCNC(=O)c2ccc(NC(=O)c3ccc(Cl)cc3)cc2)CC1 | 960 nM
27 | CC1CCC2(CC1)N=C(N)N=C(N)N2OCc1cc2ccccc2c2ccccc12 (stereo not drawn) | 243 nM
28 | CC(C)C[C@H](Nc1ccnc(NCC2CCCCC2)n1)C(=O)NCCc1ccccc1 | 750 nM
29 | O=C(COc1ccccc1Cc1ccccc1)Nc1cc(Cl)ccc1-n1cncn1 | 640 nM
30 | COc1ccc2nc(-c3ccccc3)cc(NCCCNc3cc(-c4ccccc4)nc4ccc(OC)cc34)c2c1 | 122 nM
31 | Cn1c(NC(=O)C2CCC(CNC(=O)c3ccc(O)c(-c4cccc([N+](=O)[O-])c4)c3)CC2)nc2ccccc21 (stereo not drawn) | 982 nM
32 | CC1(C)N=C(N)N=C(N)N1c1ccc([N+](=O)[O-])cc1 | 234 nM
33 | CN1CCC(C(=O)Nc2cccc(-c3ccc(-c4nc5cc(C(F)(F)F)ccc5[nH]4)cc3)c2)CC1 | 675 nM
34 | CC[C@H]1CN2CCc3cc(OC)c(OC)cc3[C@@H]2C[C@@H]1C[C@H]1NCCc2c1cc(OC)c(O)c2Cl | 144 nM
35 | CS(=O)(=O)c1ccc(CCNCc2ccc(-c3ccc(CN(C(=O)c4cccc(C#N)c4)C4CCN(Cc5ccccc5)CC4)cc3)nc2)cc1 | 977 nM
36 | CCOC(=O)NC1=NC(C)(C)N(OCCCOc2cc(Cl)c(Cl)cc2Cl)C(NC(=O)OCC)=N1 | 31.2 nM
37 | O=C(c1ccc(-c2cnc3[nH]cc(-c4ccc(C(=O)N5CCOCC5)cc4)c3c2)cc1)N1CCOCC1 | 1000 nM
38 | Nc1[nH]c2ccccc2c(=O)c1-c1nc2ccccc2s1 | 303 nM
39 | O=C(Nc1cccc(-c2ccc(-c3nc4cc(C(F)(F)F)ccc4[nH]3)s2)c1)c1ccncc1 | 681 nM
40 | CCN(CC)CCn1c(=N)n(CC(O)c2ccc(Cl)c(Cl)c2)c2ccccc21 (stereo not drawn) | 785 nM
41 | CCc1ccc(-n2c(NC(=O)c3ccccc3)nc3ccc(S(=O)(=O)NC(C)C(C)C)cc32)cc1 (stereo not drawn) | 926 nM
42 | CC(C)CNCc1ccc(-c2cccc(CN(C(=O)NC3CCCCC3)C3CCN(Cc4ccccc4)CC3)c2)cc1 | 805 nM
43 | CN(C)CCCc1cc2c(cc1Cl)CCN2C(=O)Nc1ccc(-c2ccncc2)c2ccccc12 | 1180 nM
44 | COc1cccc2cc(C(=O)N[C@@H](CC(C)C)C(=O)N[C@H](C=NNC(=O)OC(C)(C)C)CC(C)C)oc12 | 905 nM
45 | COc1cccc(OC(C)(C)c2nc(N[C@@H](C)c3ccccc3)c3cn[nH]c3n2)c1 | 968 nM
46 | COc1ccc2nccc([C@@H](O)CN3CCC(NC(=O)c4ccc(-c5ccc(C#N)cc5)cc4)CC3)c2c1 | 164 nM
47 | CCC1CN2CCc3c([nH]c4ccccc34)[C@@H]2C[C@@H]1CC1NCCc2cc(OC)c(OC)cc21 (stereo partly drawn) | 865 nM
48 | O=C(Nc1ccc(-c2nc3ccccc3[nH]2)cc1)c1ccc(N2CCOCC2)c([N+](=O)[O-])c1 | 794 nM

Row | Structure (SMILES) | XC50
49 | O=C(Nc1ccc(Cl)cc1F)NC1CCN(CCCCCNC(=O)C2CC2c2ccc(Cl)c(Cl)c2)CC1 (stereo not drawn) | 510 nM
50 | Cc1cccc2nc(-c3cccc(-c4cccc(NC(=O)Nc5ccccc5)c4)c3)[nH]c12 | 139 nM
51 | CC(C)CCNC(=N)Nc1ccc(OCCCOc2ccc(NC(=N)NCCC(C)C)cc2)cc1 | 200 nM
52 | CN1CC[C@@H](Oc2cc(CNC(=O)c3ccc(-c4ccc(Cl)cc4)s3)ccc2C(F)(F)F)C1 | 1030 nM
53 | COc1cccc(-c2cnc(N)c(-c3nc4cc(Cl)c(F)cc4[nH]3)c2)c1 | 536 nM
54 | O=C(Cc1ccc[n+]([O-])c1)Nc1ccc(-c2cccc(-c3nc4cc(C(F)(F)F)ccc4[nH]3)c2)cc1 | 882 nM
55 | Cc1ccc(NC(=O)c2cccc(CN3CCCN(Cc4cccc(O)c4)CC3)c2)cc1F | 705 nM
56 | Cc1cccc2nc(-c3ccc(-c4ccc(CN5CCC(C(N)=O)CC5)cc4)cc3)[nH]c12 | 932 nM
57 | COc1cc(C2CCN(CCCCNC(=O)c3ccc(NC(=O)c4ccc(Cl)c(Cl)c4)cc3)CC2)ccc1OC(C)C | 316 nM
58 | CS(=O)(=O)c1cc2c(Nc3ccc(N4CCOCC4)cc3)c(C(N)=O)cnc2cc1Br | 249 nM
59 | COc1ccc2nccc([C@@H](O)CN3CCC(NC(=O)C(c4cc5ccccc5o4)N4CCC(Cc5ccccc5)CC4)CC3)c2c1 (stereo partly drawn) | 247 nM
60 | C=C[C@]1(C)C[C@@H](OC(=O)c2n[nH]c3ccccc3c2=O)[C@]2(C)[C@H](C)CC[C@]3(CCC(=O)[C@H]32)[C@@H](C)[C@@H]1O | 670 nM
61 | COc1ccc(NC(=O)Nc2cc(C)nc3ccccc23)cc1Cl | 688 nM
62 | O=C(NCCCCN1CCC(c2ccc([N+](=O)[O-])cc2)CC1)c1ccc(NC(=O)c2ccc(Cl)cc2)cc1 | 757 nM
63 | CCc1ccc(NC(=O)c2ccc(CN3CCCN(Cc4cccc(C)c4)CC3)cc2)cc1 | 1130 nM
64 | Cc1cc(F)ccc1Oc1nc(Nc2ccc(N3CCOCC3)c(F)c2)nc2c1S(=O)(=O)CCC2 | 462 nM
65 | CC(=O)CSC(C=Cc1ccc(N(C)C)cc1)=Nc1ccccc1 | 1120 nM
66 | COc1ccc(-c2ccccc2OCCCNc2nc(NCCc3ccc(O)cc3)nc(N3CCNCC3)n2)cc1 | 785 nM
67 | c1ccc(Oc2ccc(Nc3ccnc4cc(-c5ccc(CN6CCNCC6)o5)ccc34)cc2)nc1 | 243 nM
68 | O=S(=O)(NCCN1CCCC1)c1ccc(-c2ccc(CNCc3ccsc3)cc2)cc1 | 853 nM
69 | CCCCCNC(=N)c1ccc(OCCCCCOc2ccc(C(=N)NCCCCC)cc2)cc1 | 247 nM
70 | O=C(NCCCCN1CCC(c2ccc3c(c2OCCN2CCCC2=O)CCCC3)CC1)c1ccc(-c2ccc(C(F)(F)F)cc2)cc1 | 1520 nM
71 | CCOC(=O)c1nc(-c2ccc(-c3ccccc3)cc2)[nH]c1N | 422 nM
72 | Cc1cc(N2CCCC2)nc(Nc2ccc(NC(=O)c3ccco3)cc2)n1 | 842 nM

Row | Structure (SMILES) | XC50
73 | CCCC(CCC)n1ccc2c3c(N)nc(N)nc3ccc21 | 4.9 nM
74 | Cc1noc(C)c1-c1ccc(C(=C2CCCCCCC2)c2ccc(O)cc2)cc1 | 1050 nM
75 | CCn1c2ccccc2c2cc(C=NN=c3cc(C)[nH]c4ccccc34)ccc21 | 309 nM
76 | COc1ccc2nccc(N3CCC(SCCNS(=O)(=O)c4ccc5c(c4)NC(=O)CS5)C3)c2n1 (stereo not drawn) | 1580 nM
77 | Cc1n[nH]c2ccc(-c3ccc4nccc(N5CCC(N)CC5)c4c3)cc12 | 591 nM
78 | CCNc1cc(C(=O)N[C@@H](Cc2ccccc2)[C@H](O)CNC2(C(C)C)CCC2)cc(N2CCCCS2(=O)=O)c1 | 685 nM
79 | COc1cc2ncnc(Nc3ccc(OCc4ccccc4)c(C(F)(F)F)c3)c2cc1OC | 253 nM
80 | O=C(CC1NC(=O)c2ccccc21)Nc1ccc(-c2cccc(-c3nc4cc(C(F)(F)F)ccc4[nH]3)c2)cc1 (stereo not drawn) | 958 nM
81 | c1cc(CNC2Cc3ccccc3C2)cc(-c2cnc(N3CCNCC3)nc2)c1 | 943 nM
82 | Cc1ccc(CNC(=O)[C@H](CCCN)Nc2nc(Nc3ccccc3)ncc2C)cc1 | 1530 nM
83 | CN(C)C(=O)c1ccc(CN(Cc2cccc(OC(C)(C)C)c2)Cc2ccc3c(c2)OCCO3)cc1 | 571 nM
84 | O=C(Nc1ccc(Cl)c(-c2nc3ccccc3[nH]2)c1)c1ccc(-c2ccc(Cl)cc2)o1 | 785 nM
85 | FC(F)(F)c1ccc2[nH]c(-c3ccc(-c4cccc(CN5CCN(c6ccncc6)CC5)c4)cc3)nc2c1 | 118 nM
86 | N#Cc1cc(C(=O)c2cc(Br)ccc2O)cn(-c2cc(Cl)cc(Cl)c2)c1=O | 879 nM
87 | C[C@H](NC(=O)c1c(CN2CCN(C(=O)C(C)(C)C)CC2)c(-c2cccs2)nc2ccccc12)C1CCCCC1 | 1180 nM
88 | CCn1c(SCC(=O)Nc2cc(C(F)(F)F)ccc2Cl)nc2ccccc2c1=O | 397 nM
89 | COc1ccc(CNc2nc(Nc3cccc(C#N)c3)nc(Nc3cccc(C#N)c3)n2)cc1Cl | 179 nM
90 | CC(CC(=O)NCC1(c2ccc(F)cc2Cl)CCOCC1)C(=O)c1ccc(Cl)cc1 (stereo not drawn) | 856 nM
91 | Cc1cc(N[C@@H](CC(C)C)C(=O)NC2CCCC2)nc(NCC2CCCCC2)n1 | 858 nM
92 | CCN1C(=O)C(=NN=C(S)N2CCCC2)c2ccccc21 | 1000 nM
93 | CN1CCN(CCCN(Cc2ccc(-c3ccc(CNCCc4ccccc4)cc3)cc2)C(=O)c2cccs2)CC1 | 1430 nM
